Patent US8969554B2, “6-acyl-1,2,4-triazine-3,5-dione derivative and herbicides” (Kumiai Chemical Industry Co., Ltd., priority 2010, dated 2015)

Assays:
Format in all cases: in vivo
[1] = system: foxtail; assay: Herbicidal activity by field soil treatment (Test example 2); conditions: 1000 g effective component per hectare, day 21 after the treatment;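 also: index 0 to 10 in 10% steps of herbicidal effect with 10 meaning complete death and 0 below 10%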
Experimental: [table] Test for Determining Herbicidal Activity by Field Soil Treatment A 80 cm^2 wide plastic pot was filled with a field soil and seeds of each of Echinochloa crus-galli, foxtail, Indian millet, and A. retroflexus were sowed and then covered with soil. The wettable powder produced with reference to the Formulation example 1 was diluted water, and applied on the soil surface by using a small sprayer in an amount of 1000 liters per hectare so that the effective component is 1000 g per hectare. After that, the plants were cultivated in a greenhouse, and on day 21 after the treatment, evaluation was made by the criteria described in Table 72 for determining the herbicidal effects.

[2] = system: A. retroflexus; assay: as above; design: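 index 0 to 10 in 10% steps of herbicidal effect with 10 meaning complete death and 0 below 10%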; conditions: 1000 g effective component per hectare, day 21 after the treatment
Outline: (§1)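 Seeds were sown in field soil in 80 cm^2 pots and covered with soil. A water-diluted wettable powder was then sprayed onto the soil surface at 1000 liters per hectare, delivering 1000 g active ingredient per hectare. Plants grew in a greenhouse, and herbicidal effect was scored against set criteria 21 days after treatment.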

[3] = system: Indian millet; assay: as above; design: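 index 0 to 10 in 10% steps of herbicidal effect with 10 meaning complete death and 0 below 10%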; conditions: 1000 g effective component per hectare, day 21 after the treatment
Outline: as §1

[4] = system: Echinochloa crus-galli; assay: as above; design: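 index 0 to 10 in 10% steps of herbicidal effect with 10 meaning complete death and 0 below 10%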; conditions: 1000 g effective component per hectare, day 21 after the treatment
Outline: as §1

[5] = system: A. retroflexus; assay: Herbicidal activity by field foliage treatment (Test example 3); design: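 index 0 to 10 in 10% steps of herbicidal effect with 10 meaning complete death and 0 below 10%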; conditions: 1000 g effective component per hectare, day 14 after the treatment
Outline: (§2)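 Plants were grown from seed in field soil in a greenhouse for 2 weeks, then sprayed over the whole foliage with a water-diluted wettable powder at 1000 L/ha spray volume, delivering 1000 g active ingredient per hectare. Herbicidal effect was scored on day 14 after treatment.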

[6] = system: Indian millet; assay: as above; design: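 index 0 to 10 in 10% steps of herbicidal effect with 10 meaning complete death and 0 below 10%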; conditions: 1000 g effective component per hectare, day 14 after the treatment
Outline: as §2

[7] = system: Echinochloa crus-galli; assay: as above; design: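 index 0 to 10 in 10% steps of herbicidal effect with 10 meaning complete death and 0 below 10%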; conditions: 1000 g effective component per hectare, day 14 after the treatment
Outline: (§3)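 Potted field-soil plants grown 2 weeks in a greenhouse were sprayed over the whole foliage with diluted wettable powder at 1000 L/ha, delivering 1000 g active ingredient per hectare. Herbicidal effect scored by visual criteria 14 days after treatment.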

[8] = system: Monochoria vaginalis; assay: Herbicidal activity by paddy field soil treatment (Test Example 1); design: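 index 0 to 10 in 10% steps of herbicidal effect with 10 meaning complete death and 0 below 10%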; conditions: 1000 g of effective component per hectare, evaluated on day 21 after the treatment, criteria of Table 72
Outline: (§4)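 Seeds were sown in puddled paddy soil in pots flooded to 3 cm water depth; the next day a water-diluted wettable powder was applied to the water surface at 1000 g active ingredient/ha. Plants were grown in a greenhouse and herbicidal effect scored by graded criteria on day 21 after treatment.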

[9] = system: Echinochloa oryzicola; assay: as above; design: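 index 0 to 10 in 10% steps of herbicidal effect with 10 meaning complete death and 0 below 10%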; conditions: 1000 g of effective component per hectare, evaluated on day 21 after the treatment, criteria of Table 72
Outline: as §4

[10] = system: Scirpus juncoides Rocxb.; assay: as above; design: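 index 0 to 10 in 10% steps of herbicidal effect with 10 meaning complete death and 0 below 10%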; conditions: applied on water surface, 1000 g of effective component per hectare, day 21 after the treatment
Outline: as §4

[11] = system: Setaria viridis; assay: Herbicidal activity by field foliage treatment (Test example 3); conditions: 1000 g effective component per hectare, day 14 after the treatment;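 also: index 0 to 10 in 10% steps of herbicidal effect with 10 meaning complete death and 0 below 10%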
Outline: as §3

| SMILES | herbicidal effect index, Setaria viridis [1] | herbicidal effect index, Amaranthus retroflexus [2] | herbicidal effect index, Abutilon theophrasti [3] | herbicidal effect index, Echinochloa crus-galli [4] | herbicidal effect index, Amaranthus retroflexus [5] | herbicidal effect index, Abutilon theophrasti [6] | herbicidal effect index, Echinochloa crus-galli [7] | Herbicidal effects index number, Monochoria vaginalis [8] | Herbicidal effects index number, Echinochloa oryzicola [9] | herbicidal effect index, S. juncoides Rocxb. [10] | herbicidal effect index, Setaria viridis [11] |
| --- | --- | --- | --- | --- | --- | --- | --- | --- | --- | --- | --- |
| CC(C)n1nc(C(=O)C2=C(O)CCCC2=O)c(=O)n(-c2ccccc2)c1=O [I-260] | 5 | 10 | 10 | 10 | 10 | 10 | 8 | 10 | 10 | 10 | – |
| COc1cc(-n2c(=O)c(C(=O)C3=C(O)CCCC3=O)nn(C)c2=O)ccc1F [I-111] | 7 | 10 | 9 | 9 | 10 | 10 | 10 | 10 | 10 | 10 | – |
| COc1cccc(OC)c1-n1c(=O)c(C(=O)C2=C(O)CCCC2=O)nn(C)c1=O [Compound I-98] | 7 | – | 7 | 7 | 8 | 9 | 7 | – | – | – | – |
| Cc1cc(I)ccc1-n1c(=O)c(C(=O)C2=C(O)CCCC2=O)nn(C)c1=O [I-283] | 8 | 10 | 9 | 9 | 8 | 8 | 8 | 10 | 10 | 10 | – |
| COc1ccc(-n2c(=O)c(C(=O)C3=C(O)CCCC3=O)nn(C)c2=O)cc1F [I-99] | 6 | 10 | 9 | 8 | 10 | 10 | 9 | 10 | 10 | 10 | – |
| Cn1nc(C(=O)C2=C(O)CCCC2=O)c(=O)n(CC(=O)OC(C)(C)C)c1=O [I-294] | 7 | 10 | 9 | 9 | 8 | 7 | 9 | 9 | 9 | 9 | – |
| Cc1ccc(-n2c(=O)c(C(=O)C3=C(O)CCCC3=O)nn(C)c2=O)cc1C [I-87] | 6 | 9 | 9 | 9 | 10 | 9 | 9 | 10 | 9 | 10 | – |
| COc1cc(-n2c(=O)c(C(=O)C3=C(O)CCCC3=O)nn(C)c2=O)ccc1Cl [I-131] | 7 | 10 | 9 | 9 | 10 | 10 | 10 | 10 | 9 | 10 | – |
| Cn1nc(C(=O)C2=C(O)CCCC2=O)c(=O)n(-c2cccc(-c3ccccc3)c2)c1=O [I-270] | 7 | 10 | – | 8 | 10 | 9 | 9 | 8 | 8 | 8 | – |
| COc1c(Cl)cc(-n2c(=O)c(C(=O)C3=C(O)CCCC3=O)nn(C)c2=O)cc1Cl [I-299] | 10 | 10 | 10 | 9 | 10 | 9 | 8 | 10 | 10 | 10 | – |
| CC(Cn1c(=O)c(C(=O)C2=C(O)CCCC2=O)nn(C)c1=O)=NOC(C)C [I-479] | – | 10 | 10 | 9 | 10 | 9 | 9 | 10 | 10 | 10 | 7 |
| Cn1nc(C(=O)C2=C(O)C(C)(C)CCC2=O)c(=O)n(-c2ccccc2)c1=O [VI-5] | – | 10 | 10 | 8 | 10 | 10 | 10 | 10 | 10 | 10 | 10 |
| Cn1nc(C(=O)C2=C(O)CCCC2=O)c(=O)n(-c2ccc(F)cc2F)c1=O [I-78] | – | 10 | 10 | 10 | 10 | 10 | 10 | 10 | 10 | 10 | 10 |
| Cn1nc(C(=O)C2=C(O)CCCC2=O)c(=O)n(-c2ccc(Cl)nc2)c1=O [I-280] | 8 | 10 | 9 | 9 | 10 | 9 | 9 | 10 | 10 | 10 | – |
